Reference: patent publication US8846981B2, “1,1-di[(alkylphenoxy)ethoxy]cyclohexanes” (Southern Lithoplate, Inc., priority 2012, dated 2014)

Assays:
[1] = Solubility of the ketals in water / deionized water; format: physicochemical; details: for Solubility in water: product or starting alcohol as described in the example
Description: A typical aqueous alkaline developer for a positive-working, lithographic printing plate contains roughly 5% by weight of NaOH or KOH. A 1.0 M NaOH solution is equivalent to 4% by weight of NaOH.

[2] = related art; cited from earlier work
[3] = Acid decomposition of the ketal back to starting alcohol and cyclohexanone; format: physicochemical; details: addition of an acid, such as p-toluenesulfonic acid
Experimental: A stirred mixture of 72 g (0.5 mol) of 1,1-dimethoxycyclohexane, 250 g (1.0 mol) of 2-[4-(1,1,3,3-tetramethylbutyl)phenoxy]ethanol, 0.080 g of p-toluenesulfonic acid, and 300 ml of toluene was reacted in a flask with a thermometer and fractional distillation column at 120° C. for 8 hours with continuous stirring. The low boiling methanol that was produced during the reaction was removed. The reaction mixture was cooled to room temperature and washed with a small amount of an aqueous 1.0 M sodium hydroxide solution until the mixture was neutralized. The reaction mixture was then washed with a saturated sodium chloride solution to remove any remaining water in the toluene. Next the reaction mixture was dried over anhydrous potassium carbonate to remove any minor amounts of water and to make sure all of the p-toluenesulfonic acid was removed. The resulting mixture was filtered. The filtrate was evaporated under reduced pressure at 60° C. until all of the toluene was removed. […] The starting surfactant is water-insoluble. This ketal with a theoretical molecular weight of 580 has the structural formula shown below.

[4] = Solubility in a 1.0 M NaOH water solution; format: physicochemical; details: 1.0 M NaOH water solution (equivalent to 4% by weight NaOH)
Description: The physical appearance of the ketals from Examples 1-4 and from Comparative Examples A-B are given in the following table, along with their solubility in deionized water and in a 1.0 M NaOH water solution. A typical aqueous alkaline developer for a positive-working, lithographic printing plate contains roughly 5% by weight of NaOH or KOH. A 1.0 M NaOH solution is equivalent to 4% by weight of NaOH.

[5] = related art; cited from earlier work; remark: listed apart in the source

Solubility in water [1] | Solubility in DI Water ([1]; deionized water) | Solubility in 1.0M NaOH [4] | Structure (SMILES) | Solubility in water (background statement, words) [2] | Decomposition by acid [3] | Decomposition by strong acids (background statement) [5]
water-insoluble |  |  | CC(C)(C)c1ccc(OCCO)cc1 [2-[4-(1,1-dimethylethyl)phenoxy]ethanol] |  |  | 
low water solubility |  |  | OCCOc1ccccc1 [2-phenoxyethanol] |  |  | 
water-insoluble | insoluble | insoluble | c1ccc(OCCOC2(OCCOc3ccccc3)CCCCC2)cc1 [A, 1,1-di(2-phenoxyethoxy)cyclohexane] | water insoluble | can be converted back to the starting alcohol and cyclohexanone | decompose this ketal into cyclohexanone and 2-phenoxyethanol

Structure (SMILES) | Solubility in water [1] | Solubility in DI Water ([1]; deionized water) | Solubility in 1.0M NaOH [4] | Solubility in water (background statement, words) [2] | Decomposition by acid [3] | Decomposition by strong acids (background statement) [5]
CC(C)(C)CC(C)(C)c1ccc(OCCO)cc1 [2-[4-(1,1,3,3-tetramethylbutyl)phenoxy]ethanol] | water-insoluble |  |  |  |  | 
